This is an account of results in patent US20060159648A1, “Novel therapeutic method and compositions for topical administration” (priority 2003, published 2006).

Where two headings read alike, the source gives them in different places.

The nature of data set [1]: human pharmacokinetics after oral dosing (literature). Format: in vivo, humans. To be noted: for Z, target local free (unbound) concentration = peak plasma free drug concentration: peak plasma concentration*(100-PBF)/100. The text has this: Z is expressed in units of ng/ml and is the target local free ( i.e. unbound) concentration that is expected to have a therapeutic effect against the skin condition. In the case of PPAR gamma agonists, Z should correspond to the peak plasma free drug concentration generated by dosing these drugs orally to treat effectively Type II diabetes mellitus. The appropriate value of Z may be determined experimentally in vivo by conventional known means using standard protocols.
C is expressed in units of ml/hr and is the rate of clearance of the drug substance. Clearance may be determined experimentally in vivo by conventional known means using standard tests. For example it can be determined from the plasma concentration in response to a defined input of drug using the equation given below: Clearance (ml/hr)=Input rate (ng/hr)/Total plasma concentration (ng/ml)

The conditions of data set [2]: cited from earlier work; for clearance: in adults.
For data set [3] the following is noted: cited from earlier work; for Plasma protein binding: Product Information; for plasma bound fraction: value used in the flux equations.
The subject of the next data set is fasting plasma glucose. To be noted: type II diabetes patients, cited from earlier work.

For the molecule `CCc1ccc(CCOc2ccc(CC3SC(=O)NC3=O)cc2)nc1` (stereo not drawn) [pioglitazone, 5-[4-[2-(5-ethyl-2-pyridyl)ethoxy]benzyl]thiazolidine-2,4-dione], in data set [1], the “Z, target local free (unbound) concentration = peak plasma free drug concentration” value turned out to be 3.5 ng/mL. Also, the Peak plasma concentration entry in data set [2] (30 mg dose) is on record as “about 700 ng/ml”. Besides, the clearance in data set [2] is 2400 mL/h. In data set [3], the Plasma protein binding was > 99% and the plasma bound fraction was 99.5%.

Turning to `CN(CCOc1ccc(CC2SC(=O)NC2=O)cc1)c1ccccn1` (stereo not drawn) [rosiglitazone, 5-[4-[2-(N-methyl-N-(2-pyridyl)amino)ethoxy]benzyl]thiazolidine-2,4-dione], the “Z, target local free (unbound) concentration = peak plasma free drug concentration” value in data set [1] was 1.7 ng/mL. The Peak plasma concentration entry in data set [2] (8 mg dose) is “about 600 ng/ml”. Further, the clearance in data set [2] is 2780 mL/h. Moreover, the plasma bound fraction in data set [3] is reported as 99.72%. The figures for the “time to achieve a reduction of fasting plasma glucose by 2 mmol 1” value in the data set on fasting plasma glucose (2 mg b.i.d. dosage regimen) and in the data set with fasting plasma glucose (4 mg b.i.d. dosage regimen) were “about 8 weeks” and “about 4 weeks”, respectively.

Take `Cc1c(C)c2c(c(C)c1O)CCC(C)(COc1ccc(CC3SC(=O)NC3=O)cc1)O2` (stereo not drawn) [troglitazone, 5-[[4-[(3,4-dihydro-6-hydroxy-2,5,7,8-tetramethyl-2H-1-benzopyran-2-yl)methoxy]phenyl]methyl]-2,4-thiazolidinedione]: in data set [1] (human, plasma, oral, in adults, from Clearance/Bioavailability and bioavailability with a meal), the clearance was 425 mL/min. The “Z, target local free (unbound) concentration = peak plasma free drug concentration” value in data set [1] is 7.5 ng/mL. In addition, in data set [2] (400 mg dose), the Peak plasma concentration result is listed as “about 1500 ng/ml”. In data set [2] (with a meal), the Bioavailability was ~85% and the Clearance/Bioavailability is 500 mL/min. For the same molecule, in data set [3], the Plasma protein binding is on record as 99% and the plasma bound fraction is given as 99.5%.
